Measured values taken from US20240208992A1, “MACROCYCLES AS CFTR MODULATORS” (Idorsia Pharmaceuticals Ltd, priority 2021, published 2024).

Target: human F508del-CFTR (Homo sapiens, UniProt P13569, DEL508-508)
Experiment: F508del-CFTR cell surface expression (corrector activity), DiscoveRx ß-galactosidase complementation chemiluminescence assay in recombinant U2OS cell line;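 note: U2OS cells co-expressing ProLink-tagged F508del-CFTR and a membrane-anchored enzyme acceptor, where more surface CFTR restores β-galactosidase activity measured by chemiluminescence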
Conditions: for EC50: EC50, F508del-CFTR cell surface expression
[1] = U2OS cell line, 16h compound incubation, geomean values
[2] = U2OS, in relation to the Emax of the corrector lumacaftor (=100%), U2OS cell line, 16h compound incubation, arithmetic mean values
[3] = U2OS cells, 16h compound incubation, geomean values
[4] = U2OS, in relation to Emax of corrector lumacaftor (=100%), arithmetic mean values

Chain of human F508del-CFTR (P13569 with tags, fused parts or gaps DEL508-508): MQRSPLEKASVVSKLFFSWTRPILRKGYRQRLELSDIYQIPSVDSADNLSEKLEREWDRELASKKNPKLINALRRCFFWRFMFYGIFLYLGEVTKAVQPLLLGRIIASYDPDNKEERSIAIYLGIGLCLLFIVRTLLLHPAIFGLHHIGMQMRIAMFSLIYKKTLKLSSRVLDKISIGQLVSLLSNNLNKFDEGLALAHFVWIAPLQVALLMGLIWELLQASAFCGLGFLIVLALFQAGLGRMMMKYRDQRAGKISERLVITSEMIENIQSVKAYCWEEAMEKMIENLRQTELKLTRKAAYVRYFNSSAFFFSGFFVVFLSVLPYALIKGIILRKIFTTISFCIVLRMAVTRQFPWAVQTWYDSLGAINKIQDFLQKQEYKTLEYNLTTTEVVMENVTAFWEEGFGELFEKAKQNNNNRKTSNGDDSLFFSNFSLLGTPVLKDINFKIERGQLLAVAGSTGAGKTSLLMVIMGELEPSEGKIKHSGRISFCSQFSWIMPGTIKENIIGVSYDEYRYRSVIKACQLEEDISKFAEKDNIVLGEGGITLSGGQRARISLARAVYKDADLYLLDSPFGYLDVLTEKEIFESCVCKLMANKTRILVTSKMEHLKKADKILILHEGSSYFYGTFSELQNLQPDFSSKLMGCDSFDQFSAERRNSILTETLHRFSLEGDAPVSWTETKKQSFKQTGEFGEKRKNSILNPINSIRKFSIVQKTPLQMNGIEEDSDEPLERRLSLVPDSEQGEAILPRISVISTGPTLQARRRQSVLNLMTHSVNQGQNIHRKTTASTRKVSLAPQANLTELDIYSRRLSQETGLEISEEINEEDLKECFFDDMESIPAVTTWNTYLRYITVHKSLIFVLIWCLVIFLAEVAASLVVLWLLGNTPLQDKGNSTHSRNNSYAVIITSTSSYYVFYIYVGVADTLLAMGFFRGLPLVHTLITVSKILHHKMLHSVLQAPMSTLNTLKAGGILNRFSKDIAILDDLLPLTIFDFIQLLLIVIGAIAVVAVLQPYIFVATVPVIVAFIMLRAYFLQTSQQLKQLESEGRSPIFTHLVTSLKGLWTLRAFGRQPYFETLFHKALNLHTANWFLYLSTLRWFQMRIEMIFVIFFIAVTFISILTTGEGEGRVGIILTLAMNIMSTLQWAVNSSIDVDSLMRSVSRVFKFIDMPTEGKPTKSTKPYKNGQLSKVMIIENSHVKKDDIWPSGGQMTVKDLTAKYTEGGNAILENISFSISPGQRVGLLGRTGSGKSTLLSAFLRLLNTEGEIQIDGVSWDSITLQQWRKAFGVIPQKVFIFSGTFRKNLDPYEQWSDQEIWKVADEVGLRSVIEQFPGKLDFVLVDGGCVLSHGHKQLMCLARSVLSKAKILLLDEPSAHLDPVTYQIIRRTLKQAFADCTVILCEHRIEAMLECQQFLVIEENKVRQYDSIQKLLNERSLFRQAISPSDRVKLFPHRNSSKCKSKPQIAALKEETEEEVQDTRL

| SMILES | EC50 [1] [nM] | Emax [2] [%] | EC50 [3] [nM] | Emax [4] [%] | further results |
| --- | --- | --- | --- | --- | --- |
| CC(C)C[C@H]1C(=O)N2CCOC[C@@H]2C(=O)N[C@H](Cc2ccccc2)COc2cnc3ccccc3c2C(=O)N[C@H](C(=O)NCCc2ccc(Br)cc2)CC(=O)N1C [Example 49, (9S,13S,19aR,22R)-22-benzyl-N-(4-bromophenethyl)-13-isobutyl-12-methyl-7,11,14,20-tetraoxo-7,8,9,10,11,12,13,14,16,17,19,19a,20,21,22,23-hexadecahydro-[1,4]oxazino[3′,4′:6,7][1]oxa[4,7,10,14]tetraazacycloheptadecino[17,16-c]quinoline-9-carboxamide] | 347 | 136 | – | – | – |
| COc1cccc(CCNC(=O)[C@@H]2CC(=O)N(C)[C@@H](CC(C)C)C(=O)N3CCOC[C@H]3C(=O)N[C@H](Cc3ccccc3)COc3ccc4c(C)noc4c3C(=O)N2)c1 (mixture of isomers) [Example 624, (4aRS,7R,17S,21S)-7-benzyl-21-isobutyl-N-(3-methoxyphenethyl)-12,20-dimethyl-5,15,19,22-tetraoxo-1,2,4,4a,5,6,7,8,15,16,17,18,19,20,21,22-hexadecahydroisoxazolo[4′,5′:5,6]benzo[1,2-p][1,4]oxazino[3,4-f][1]oxa[4,7,10,14]tetraazacycloheptadecine-17-carboxamide] | – | – | 921 | 171 | – |
| CC(C)C[C@H]1C(=O)N(C)C2(CC2)C(=O)N[C@H](Cc2ccccc2)COc2cnc3ccc(F)cc3c2C(=O)N[C@H](C(=O)NCCc2cccc(-c3ncccn3)c2)CC(=O)N1C [Example 138, (3′S,7′S,13′R)-13′-benzyl-20′-fluoro-7′-isobutyl-6′,9′-dimethyl-1′,5′,8′,11′-tetraoxo-N-(3-(pyrimidin-2-yl)phenethyl)-2′,3′,4′,5′,6′,7′,8′,9′,11′,12′,13′,14′-dodecahydro-1′H-spiro[cyclopropane-1,10′-[1]oxa[4,7,10,14]tetraazacycloheptadecino[17,16-c]quinoline]-3′-carboxamide] | 538 | 292 | – | – | – |
| COc1cccc(CCNC(=O)[C@@H]2CC(=O)N(C)[C@@H](CC(C)C)C(=O)N3CCN(c4ccccc4)C[C@@H]3C(=O)N[C@H](Cc3ccccc3)COc3cnc4ccccc4c3C(=O)N2)c1 [Example 509, (9S,13S,19aR,22R)-22-benzyl-13-isobutyl-N-(3-methoxyphenethyl)-12-methyl-7,11,14,20-tetraoxo-18-phenyl-7,8,9,10,11,12,13,14,17,18,19,19a,20,21,22,23-hexadecahydro-16H-pyrazino[2′,11:6,7][1]oxa[4,7,10,14]tetraazacycloheptadecino[17,16-c]quinoline-9-carboxamide] | – | – | 75 | 327 | – |
| COc1cccc(CCNC(=O)[C@@H]2CC(=O)N(C)[C@@H](CC3CCCC3)C(=O)N(C[C@@H]3CCCCO3)CC(=O)N[C@H](Cc3ccccc3)COc3ccc4ccccc4c3C(=O)N2)c1 (racemic) [Example 293, (3RS,7S,13R)-13-benzyl-7-(cyclopentylmethyl)-N-(3-methoxyphenethyl)-6-methyl-1,5,8,11-tetraoxo-9-(((S)-tetrahydro-2H-pyran-2-yl)methyl)-1,2,3,4,5,6,7,8,9,10,11,12,13,14-tetradecahydronaphtho[1,2-p][1]oxa[4,7,10,14]tetraazacycloheptadecine-3-carboxamide] | – | – | – | – | Emax (in relation to the Emax of the corrector lumacaftor (=100%), U2OS cell line, 16h compound incubation, arithmetic mean values): 137% |
| Cc1onc(CCNC(=O)[C@@H]2CC(=O)N(C)[C@@H](CC(C)C)C(=O)N3CCOC[C@@H]3C(=O)N[C@H](Cc3ccccc3)COc3ccc4ccccc4c3C(=O)N2)c1C [Example 70, (4aR,7R,18S,22S)-7-benzyl-N-(2-(4,5-dimethylisoxazol-3-yl)ethyl)-22-isobutyl-21-methyl-5,16,20,23-tetraoxo-1,2,4,4a,5,6,7,8,16,17,18,19,20,21,22,23-hexadecahydronaphtho[1,2-p][1,4]oxazino[3,4-f][1]oxa[4,7,10,14]tetraazacycloheptadecine-18-carboxamide] | 754 | 202 | – | – | – |
| COc1cccc(CCNC(=O)[C@@H]2CC(=O)N(C)[C@@H](CC(C)C)C(=O)N(C)[C@@H](CO)C(=O)N[C@H](Cc3ccccc3)COc3ccc4ccccc4c3C(=O)N2)c1 (mixture of isomers) [Example 718, (3S,7S,10RS,13R)-13-benzyl-10-(hydroxymethyl)-7-isobutyl-N-(3-methoxyphenethyl)-6,9-dimethyl-1,5,8,11-tetraoxo-1,2,3,4,5,6,7,8,9,10,11,12,13,14-tetradecahydronaphtho[1,2-p][1]oxa[4,7,10,14]tetraazacycloheptadecine-3-carboxamide] | – | – | 359 | – | – |
| CC(C)C[C@H]1C(=O)N2CCOC[C@@H]2C(=O)N[C@H](Cc2ccccc2)COc2cnc3ccccc3c2C(=O)N[C@H](C(=O)NCCc2cccc(Cl)c2)CC(=O)N1C [Example 51, (9S,13S,19aR,22R)-22-benzyl-N-(3-chlorophenethyl)-13-isobutyl-12-methyl-7,11,14,20-tetraoxo-7,8,9,10,11,12,13,14,16,17,19,19a,20,21,22,23-hexadecahydro-[1,4]oxazino[3′,4′:6,7][1]oxa[4,7,10,14]tetraazacycloheptadecino[17,16-c]quinoline-9-carboxamide] | 352 | 187 | – | – | – |
| Cc1nc2ccc3c(c2o1)C(=O)N[C@H](C(=O)NCCc1cccc(C(C)(F)F)c1)CC(=O)N(C)[C@@H](CC(C)C)C(=O)N(CCC1CCCCC1)CC(=O)N[C@H](Cc1ccccc1)CO3 [Example 422, (8R,14S,18S)-8-benzyl-12-(2-cyclohexylethyl)-N-(3-(1,1-difluoroethyl)phenethyl)-14-isobutyl-2,15-dimethyl-10,13,16,20-tetraoxo-7,8,9,10,11,12,13,14,15,16,17,18,19,20-tetradecahydrooxazolo[4′,5′:5,6]benzo[1,2-p][1]oxa[4,7,10,14]tetraazacycloheptadecine-18-carboxamide] | – | – | 192 | 193 | – |
| COc1ccc(CCNC(=O)[C@@H]2CC(=O)N(C)[C@@H](CC(C)C)C(=O)N3CCCC[C@@H]3C(=O)N[C@H](Cc3ccccc3)COc3cnc4ccccc4c3C(=O)N2)cc1C [Example 95, (9S,13S,19aR,22R)-22-benzyl-13-isobutyl-N-(4-methoxy-3-methylphenethyl)-12-methyl-7,11,14,20-tetraoxo-7,8,9,10,11,12,13,14,17,18,19,19a,20,21,22,23-hexadecahydro-16H-pyrido[2′,1′:6,7][1]oxa[4,7,10,14]tetraazacycloheptadecino[17,16-c]quinoline-9-carboxamide] | 250 | 178 | – | – | – |
| COc1cccc(CCNC(=O)[C@@H]2CC(=O)N(C)[C@@H](CC(C)C)C(=O)N(CCC3CCCCC3)CC(=O)N[C@H](Cc3ccccc3)COc3ccc4c(c3C(=O)N2)OCO4)c1 [Example 346, (8R,14S,18S)-8-benzyl-12-(2-cyclohexylethyl)-14-isobutyl-N-(3-methoxyphenethyl)-15-methyl-10,13,16,20-tetraoxo-7,8,9,10,11,12,13,14,15,16,17,18,19,20-tetradecahydro-[1,3]dioxolo[4′,5′:5,6]benzo[1,2-p][1]oxa[4,7,10,14]tetraazacycloheptadecine-18-carboxamide] | 106 | 282 | – | – | – |
| COc1noc(CCNC(=O)[C@@H]2CC(=O)N(C)[C@@H](CC(C)C)C(=O)N(C)[C@H](Cc3nc(C(F)(F)F)no3)C(=O)N[C@H](Cc3ccccc3)COc3cc(C)nc(OC)c3C(=O)N2)n1 [Example 919, (3R,6R,9S,13S)-3-benzyl-9-isobutyl-16-methoxy-N-(2-(3-methoxy-1,2,4-oxadiazol-5-yl)ethyl)-7,10,18-trimethyl-5,8,11,15-tetraoxo-6-((3-(trifluoromethyl)-1,2,4-oxadiazol-5-yl)methyl)-2,3,4,5,6,7,8,9,10,11,12,13,14,15-tetradecahydropyrido[3,4-p][1]oxa[4,7,10,14]tetraazacycloheptadecine-13-carboxamide] | – | – | – | – | EC50 (U2OS cells, 16h compound incubation, geomean of several measurements): 104 nM; Emax (U2OS, in relation to the Emax of the corrector lumacaftor (=100%), U2OS cells, 16h compound incubation, arithmetic mean): 443% |
| Cc1cc(CCNC(=O)[C@@H]2CC(=O)N(C)[C@@H](CC(C)C)C(=O)N(C)[C@H](COCc3ccccc3)C(=O)N[C@H](Cc3ccccc3)COc3cnc4ccccc4c3C(=O)N2)on1 [Example 564, (3S,7S,10R,13R)-13-benzyl-10-((benzyloxy)methyl)-7-isobutyl-6,9-dimethyl-N-(2-(3-methylisoxazol-5-yl)ethyl)-1,5,8,11-tetraoxo-1,2,3,4,5,6,7,8,9,10,11,12,13,14-tetradecahydro-[1]oxa[4,7,10,14]tetraazacycloheptadecino[17,16-c]quinoline-3-carboxamide] | – | – | 49 | 298 | – |
| CC(C)C[C@H]1C(=O)N2CCOC[C@@H]2C(=O)N[C@H](Cc2ccccc2)COc2cnc3ccc(F)cc3c2C(=O)N[C@H](C(=O)NCCc2cc(C3CC3)no2)CC(=O)N1C [Example 644, (9S,13S,19aR,22R)-22-benzyl-N-(2-(3-cyclopropylisoxazol-5-yl)ethyl)-5-fluoro-13-isobutyl-12-methyl-7,11,14,20-tetraoxo-7,8,9,10,11,12,13,14,16,17,19,19a,20,21,22,23-hexadecahydro-[1,4]oxazino[3′,4′:6,7][1]oxa[4,7,10,14]tetraazacycloheptadecino[17,16-c]quinoline-9-carboxamide] | – | – | 277 | 270 | – |
| COc1cccc(CCNC(=O)[C@@H]2CC(=O)N(C)[C@@H](CC(C)C)C(=O)N3CCN(c4ccccc4)C[C@@H]3C(=O)N[C@H](Cc3ccccc3)COc3ccnc(OC)c3C(=O)N2)c1 [Example 538, (7S,11S,20R,22aR)-20-benzyl-7-isobutyl-14-methoxy-N-(3-methoxyphenethyl)-8-methyl-6,9,13,22-tetraoxo-2-phenyl-1,3,4,6,7,8,9,10,11,12,13,19,20,21,22,22a-hexadecahydro-2H-pyrazino[2,1-f]pyrido[3,4-p][1]oxa[4,7,10,14]tetraazacycloheptadecine-11-carboxamide] | – | – | 80 | 340 | – |
